Experiment [1] has as its target T1, wild-type human cardiac sodium channel, hNav1.5 (Homo sapiens, UniProt Q14524). As to the kind of experiment: Peak INa screening assay (tonic block and use-dependent block). It is filed as cell-based. In short, it runs like this: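 Whole-cell automated patch clamp, 23-25° C, on hNav1.5 alpha-only HEK293 cells with Na+ lowered to 40 mM by choline. Block measured after two additions of 1 or 3 μM compound and 200 s wait: tonic at 0.1 Hz, use-dependent at 50th pulse (−20 mV, 20 ms, 3 Hz) from −100 mV, relative to drug-free, rundown corrected.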

The target of experiment [2] is T1, wild-type human cardiac sodium channel, hNav1.5. In words: Late INa screening assay (QPatch whole cell patch clamp, Tefluthrin-induced late current). It is filed as cell-based. As to conditions: 1 uM; HEK293 hNav1.5; percent block of late INa. The essentials: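 HEK293 cells stably expressing hNav1.5 without beta subunits were whole-cell patch clamped at 23-25 °C, stepping from −120 to −20 mV for 250 ms at 0.1 Hz. Late current (240–265 ms) was induced with 10 μM Tefluthrin, and compounds were added typically at 0.3 or 1 μM. Percent block was taken against 0 Na baseline with rundown correction.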
(In patch-clamp work, channel activity is measured electrically.)

The mark [3] stands for this setting: tonic block of Peak INa, 0.1 Hz, holding -100 mV, read-out: Peak TB 3 uM.
Setting [4] is: use-dependent block of Peak INa, 3 Hz, pulse 50, read-out: Peak UDB 3 Hz 3 uM.

Like-named read-outs stand apart in the source and are kept apart here.

T1 sequence (Q14524 whole entry): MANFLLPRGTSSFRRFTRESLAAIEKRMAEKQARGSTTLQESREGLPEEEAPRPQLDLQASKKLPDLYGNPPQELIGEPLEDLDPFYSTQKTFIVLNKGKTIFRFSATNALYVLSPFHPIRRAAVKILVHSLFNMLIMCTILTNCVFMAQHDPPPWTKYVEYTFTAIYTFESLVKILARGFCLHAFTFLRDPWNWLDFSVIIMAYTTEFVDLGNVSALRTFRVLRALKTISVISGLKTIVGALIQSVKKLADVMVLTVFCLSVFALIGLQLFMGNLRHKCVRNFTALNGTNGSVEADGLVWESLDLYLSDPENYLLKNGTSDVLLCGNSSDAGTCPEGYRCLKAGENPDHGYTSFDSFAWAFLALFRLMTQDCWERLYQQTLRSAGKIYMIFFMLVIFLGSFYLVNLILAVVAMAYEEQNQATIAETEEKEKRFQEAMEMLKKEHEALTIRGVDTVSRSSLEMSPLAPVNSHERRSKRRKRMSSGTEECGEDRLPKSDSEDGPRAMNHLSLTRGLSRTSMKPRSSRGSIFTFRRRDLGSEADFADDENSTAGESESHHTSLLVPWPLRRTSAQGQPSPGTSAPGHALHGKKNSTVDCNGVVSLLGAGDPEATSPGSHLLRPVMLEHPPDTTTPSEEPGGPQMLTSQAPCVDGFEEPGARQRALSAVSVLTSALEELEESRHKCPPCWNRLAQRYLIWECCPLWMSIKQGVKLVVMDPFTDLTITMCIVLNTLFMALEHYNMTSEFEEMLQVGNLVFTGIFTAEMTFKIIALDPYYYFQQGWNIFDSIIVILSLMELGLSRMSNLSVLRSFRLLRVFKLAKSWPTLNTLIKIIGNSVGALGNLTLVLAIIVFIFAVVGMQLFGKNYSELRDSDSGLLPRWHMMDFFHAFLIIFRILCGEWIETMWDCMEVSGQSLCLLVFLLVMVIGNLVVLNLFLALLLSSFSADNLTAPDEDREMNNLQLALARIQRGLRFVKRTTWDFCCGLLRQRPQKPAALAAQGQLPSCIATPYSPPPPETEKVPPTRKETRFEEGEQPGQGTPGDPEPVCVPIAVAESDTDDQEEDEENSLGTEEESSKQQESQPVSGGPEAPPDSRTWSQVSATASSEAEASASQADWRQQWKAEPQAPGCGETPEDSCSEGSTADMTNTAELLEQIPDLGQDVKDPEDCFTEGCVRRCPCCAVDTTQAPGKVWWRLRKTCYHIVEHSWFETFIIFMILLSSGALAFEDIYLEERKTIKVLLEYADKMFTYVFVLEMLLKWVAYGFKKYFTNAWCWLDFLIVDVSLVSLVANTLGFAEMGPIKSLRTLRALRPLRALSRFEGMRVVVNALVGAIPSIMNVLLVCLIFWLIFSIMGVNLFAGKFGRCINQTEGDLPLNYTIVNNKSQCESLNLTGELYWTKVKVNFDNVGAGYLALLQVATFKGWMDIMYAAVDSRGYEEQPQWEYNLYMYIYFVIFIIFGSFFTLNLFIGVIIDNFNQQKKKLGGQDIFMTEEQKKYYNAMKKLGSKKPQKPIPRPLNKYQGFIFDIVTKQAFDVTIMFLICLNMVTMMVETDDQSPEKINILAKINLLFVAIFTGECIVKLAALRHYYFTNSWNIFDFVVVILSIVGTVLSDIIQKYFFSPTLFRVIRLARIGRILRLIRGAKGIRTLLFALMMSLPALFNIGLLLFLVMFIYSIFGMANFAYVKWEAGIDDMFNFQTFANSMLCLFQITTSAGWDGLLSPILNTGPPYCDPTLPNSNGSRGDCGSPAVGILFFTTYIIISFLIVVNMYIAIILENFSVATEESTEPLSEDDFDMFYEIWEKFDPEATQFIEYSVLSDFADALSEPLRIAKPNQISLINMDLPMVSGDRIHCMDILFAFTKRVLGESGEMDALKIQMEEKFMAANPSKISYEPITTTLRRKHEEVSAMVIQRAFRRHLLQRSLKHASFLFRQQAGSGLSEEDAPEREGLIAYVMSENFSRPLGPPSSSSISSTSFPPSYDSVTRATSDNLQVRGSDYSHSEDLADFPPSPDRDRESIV

Consider `Cc1cc(-c2cc3c(OCc4ncccn4)noc3cc2C)ccc1OC(F)(F)F` [Example 27, 6-methyl-5-(3-methyl-4-(trifluoromethoxy)phenyl)-3-(pyrimidin-2-ylmethoxy)benzo[d]isoxazole], for which the inhibition at 3 µM in experiment [1] (setting [3]) is 20.8%; in experiment [1] (setting [4]), less than 5%. Further, in experiment [2], the inhibition at 1 µM was found to be 35.1%.

Regarding `Fc1cc(-c2ccc(OC(F)(F)F)cc2)cc2c(OCc3ncccn3)noc12` [Example 17, 7-fluoro-3-(pyrimidin-2-ylmethoxy)-5-(4-(trifluoromethoxy)phenyl)benzo[d]isoxazole], the results for the inhibition at 3 µM in experiment [1] (setting [3]) and in experiment [1] (setting [4]) were 28.9% and less than 5%, respectively. Further, in experiment [2], the inhibition at 1 µM is 45.9%.

With `FC(F)(F)Oc1ccc(-c2ccc3onc(OCc4nccn4-c4ccccc4)c3c2)cc1` [Example 64, 3-((1-phenyl-1H-imidazol-2-yl)methoxy)-5-(4-(trifluoromethoxy)phenyl)benzo[d]isoxazole], the figures for the inhibition at 3 µM in experiment [1] (setting [3]) and in experiment [1] (setting [4]) were 10.1% and less than 5%, respectively. This molecule showed an inhibition at 1 µM in experiment [2] of 30.7%.

Turning to `Cc1cc2onc(OCc3ncccn3)c2cc1-c1ccc(OC(F)(F)F)cc1` [Example 26, 6-methyl-3-(pyrimidin-2-ylmethoxy)-5-(4-(trifluoromethoxy)phenyl)benzo[d]isoxazole], the figures for the inhibition at 3 µM in experiment [1] (setting [3]) and in experiment [1] (setting [4]) were 27.8% and less than 5%, respectively. The same molecule had an inhibition at 1 µM in experiment [2] of 49.6%.

Consider `Cc1cccnc1COc1noc2ccc(-c3ccc(OC(F)(F)F)cc3)cc12` [Example 93, 3-((3-methylpyridin-2-yl)methoxy)-5-(4-(trifluoromethoxy)phenyl)benzo[d]isoxazole], for which the inhibition at 3 µM in experiment [1] (setting [3]) is 14.9%; in experiment [1] (setting [4]), less than 5%. For the same molecule, the inhibition at 1 µM in experiment [2] stood at 45.1%.

Turning to `Cc1cccc(COc2noc3ccc(-c4ccc(OC(F)(F)F)cc4)cc23)n1` [Example 95, 3-((6-methylpyridin-2-yl)methoxy)-5-(4-(trifluoromethoxy)phenyl)benzo[d]isoxazole], the values for the inhibition at 3 µM in experiment [1] (setting [3]) and in experiment [1] (setting [4]) were 6.4% and less than 5%, respectively. The molecule also showed an inhibition at 1 µM in experiment [2] of 51.7%.

Turning to `COc1cc(-c2ccc(OC(F)(F)F)cc2C)cc2c(OCc3ncccn3)noc12` [Example 25, 7-methoxy-5-(2-methyl-4-(trifluoromethoxy)phenyl)-3-(pyrimidin-2-ylmethoxy)benzo[d]isoxazole], the inhibition at 3 µM was 12% in experiment [1] (setting [3]) and less than 5% in experiment [1] (setting [4]). The inhibition at 1 µM in experiment [2] worked out at 41.3%.

As for `Cc1cc(-c2ccc(OC(F)(F)F)cc2)cc2c(OCc3ncco3)noc12` [Example 91, 7-methyl-3-(oxazol-2-ylmethoxy)-5-(4-(trifluoromethoxy)phenyl)benzo[d]isoxazole], the values for the inhibition at 3 µM in experiment [1] (setting [3]) and in experiment [1] (setting [4]) were 33% and less than 5%, respectively. The inhibition at 1 µM in experiment [2] is 53%.
